# Assay results published in patent publication US20040132793A1, “Pyrazole derivatives” (Pfizer Inc., priority 2002, published 2004).
# Experiments:
# [1] = Metabolism in human liver microsomes; assay type: in vitro ADME; details: pH 7.4, human microsomes 0.5 μM cytochrome P450, substrate 1 μM, 37° C., 1 hour, read-out: t 1/2 (human microsomal)
# Description: (§1) A. Metabolism in Human Liver Microsomes and Supermix™ The metabolic vulnerability of the compounds of the invention in microsomes and Supermix™ may be assayed as follows. The microsomal fraction is isolated from several human livers and the P450 content determined. Supermix™ is obtained from Gentest. Human microsomes (0.5 μM cytochrome P450) and Supermix™ (0.05 μM cytochrome P450) are added to an incubation media containing 50 mM phosphate buffer (pH7.4), 5 mM MgCl2, 1 mM NADP and an NADPH generating system consisting of isocitrate and isocitrate dehydrogenase. The substrate concentration is 1 μM and incubations are carried out at 37° C. for 1 hour. Samples are taken at time points throughout this period and analysed using hplc-ms-ms assay.
# [2] = target: T1, purified recombinant HIV-1 reverse transcriptase (Human immunodeficiency virus type 1 group M subtype B, UniProt P04585); assay: Inhibition of HIV-1 reverse transcriptase enzyme; assay type: biochemical
# T1 construct: purified recombinant HIV-1 reverse transcriptase (RT, EC, 2.7.7.49); made in house; host or cells: Escherichia coli
# Text: The activity of the compounds of the invention as reverse transcriptase inhibitors may be measured using the following assay.
# Inhibition of HIV-1 Reverse Transcriptase Enzyme
# Using purified recombinant HIV-1 reverse transcriptase (RT, EC, 2.7.7.49) obtained by expression in Escherichia Coli, a 96-well plate assay system is established for assaying a large number of samples using either the Poly(rA)-oligo(dT) Reverse Transcriptase [3H]-SPA enzyme assay system (Amersham NK9020) or the [3H]-flashplate enzyme assay system (NEN-SMP 103) and following the manufacturer's recommendations. The compounds are dissolved in 100% DMSO and diluted with the appropriate buffer to a 5% final DMSO concentration. The inhibitory activity is expressed in percent inhibition relative to DMSO control.
# Metabolism in Supermix = assay type: in vitro ADME; details: human, Supermix (Gentest), pH 7.4; Supermix 0.05 μM cytochrome P450; substrate 1 μM; 37° C., 1 hour; read-out: t 1/2 (Supermix)
# Description: as §1
# [3] = Metabolism in human hepatocytes; assay type: in vitro ADME; details: cryopreserved human hepatocytes 1 million cells/ml; substrate 3 μM; 37° C., 3 hours
# Description: B. Metabolism in Human Hepatocytes.
# The metabolic vulnerability of the compounds of the invention in human hepatocytes may be assayed as follows.
# Cryopreserved human hepatocytes are obtained from In vitro Technologies, Inc. The hepatocytes are thawed and suspended at 1 million cells/ml in 50% Krebs-Heinsleit buffer: 50% Williams E media containing 10% foetal bovine serum. The substrate concentration is 3 μM and incubations are carried out at 37° C. for 3 hours. Samples are taken at time points throughout this period and analysed using hplc-ms-ms assay.
smiles,measurement,setting,value
"Cc1c(Oc2cc(C#N)cc(C#N)c2)c(C2CC2)nn1CCO [Example 1, 5-{[3-Cyclopropyl-1-(2-hydroxyethyl)-5-methyl-1H-pyrazol-4-yl]oxy}isophthalonitrile]",half-life at 1 μM,[1],> 2 h
same,IC50,[2],295 nM
same,half-life at 1 μM,Metabolism in Supermix,> 2 h
same,unbound hepatocyte clearance,[3],< 9 mL/min/kg
